Measured values as given in ChEMBL document CHEMBL3885881, “DrugMatrix”.

Species: Rattus norvegicus
Experiment: DrugMatrix - Regimen: Daily Repeat
Assay type: toxicity, organism-based, Sprague-Dawley
Set-up: regimen Daily Repeat, gender Male, age 6-8 weeks
Settings: in vivo, po, route oral GAVAGE, vehicle .5 % CMC; for BASOPHIL / EOSINOPHIL / ERYTHROCYTE COUNT / HEMATOCRIT / HEMOGLOBIN / LEUKOCYTE COUNT / LYMPHOCYTE / MEAN CORPUSCULAR HEMOGLOBIN / MEAN CORPUSCULAR HEMOGLOBIN CONCENTRATION / MEAN CORPUSCULAR VOLUME / MONOCYTE / NEUTROPHIL / PLATELET COUNT: tissue Blood; for ALANINE AMINOTRANSFERASE / ALBUMIN / ALKALINE PHOSPHATASE / ASPARTATE AMINOTRANSFERASE / BLOOD UREA NITROGEN / CHLORIDE / CHOLESTEROL / CREATINE PHOSPHOKINASE / CREATININE / GLUCOSE / PHOSPHORUS / POTASSIUM / SODIUM / TOTAL BILIRUBIN / TOTAL PROTEIN: tissue Plasma
[1] = 0 mg/kg, 72 h, dose level Control, time 3 day
[2] = 0 mg/kg, 120 h, dose level Control, time 5 day
[3] = 8 mg/kg, 72 h, dose level Low, time 3 day
[4] = 8 mg/kg, 120 h, dose level Low, time 5 day
[5] = 24 mg/kg, 72 h, dose level High, time 3 day
[6] = 24 mg/kg, 120 h, dose level High, time 5 day

CCc1cccc2c3c([nH]c12)C(CC)(CC(=O)O)OCC3 (stereo not drawn) [ETODOLAC]
BASOPHIL [1]: 1.52%
EOSINOPHIL [1]: 0.98%
ERYTHROCYTE COUNT [1]: 6.96 x10E6/uL
HEMATOCRIT [1]: 44.65%
HEMOGLOBIN [1]: 13.62 G/DL
LEUKOCYTE COUNT [1]: 9.83 x10E3/uL
LYMPHOCYTE [1]: 76.48%
MEAN CORPUSCULAR HEMOGLOBIN [1]: 19.57 pg
MEAN CORPUSCULAR HEMOGLOBIN CONCENTRATION [1]: 30.47 G/DL
MEAN CORPUSCULAR VOLUME [1]: 64.22 fL
MONOCYTE [1]: 2.13%
NEUTROPHIL [1]: 18.6%
PLATELET COUNT [1]: 1217.17 x10E3/uL
ALANINE AMINOTRANSFERASE [1]: 41 u/L
ALBUMIN [1]: 3.77 G/DL
ALKALINE PHOSPHATASE [1]: 411.83 u/L
ASPARTATE AMINOTRANSFERASE [1]: 62.83 u/L
BLOOD UREA NITROGEN [1]: 15.17 mg/dL
CHLORIDE [1]: 104.33 MEQ/L
CHOLESTEROL [1]: 71.17 mg/dL
CREATINE PHOSPHOKINASE [1]: 123.5 u/L
CREATININE [1]: 0.55 mg/dL
GLUCOSE [1]: 182.67 mg/dL
PHOSPHORUS [1]: 11.23 mg/dL
POTASSIUM [1]: 7.03 MEQ/L
SODIUM [1]: 148 MEQ/L
TOTAL BILIRUBIN [1]: 0.57 mg/dL
TOTAL PROTEIN [1]: 6.85 G/DL
BASOPHIL [2]: 1.35%
EOSINOPHIL [2]: 0.43%
ERYTHROCYTE COUNT [2]: 6.96 x10E6/uL
HEMATOCRIT [2]: 44.35%
HEMOGLOBIN [2]: 13.98 G/DL
LEUKOCYTE COUNT [2]: 9.45 x10E3/uL
LYMPHOCYTE [2]: 80.83%
MEAN CORPUSCULAR HEMOGLOBIN [2]: 20.1 pg
MEAN CORPUSCULAR HEMOGLOBIN CONCENTRATION [2]: 31.52 G/DL
MEAN CORPUSCULAR VOLUME [2]: 63.72 fL
MONOCYTE [2]: 2.37%
NEUTROPHIL [2]: 14.05%
PLATELET COUNT [2]: 1298 x10E3/uL
ALANINE AMINOTRANSFERASE [2]: 42.17 u/L
ALBUMIN [2]: 3.77 G/DL
ALKALINE PHOSPHATASE [2]: 419 u/L
ASPARTATE AMINOTRANSFERASE [2]: 66.67 u/L
BLOOD UREA NITROGEN [2]: 16.67 mg/dL
CHLORIDE [2]: 103.17 MEQ/L
CHOLESTEROL [2]: 66.33 mg/dL
CREATINE PHOSPHOKINASE [2]: 148.33 u/L
CREATININE [2]: 0.58 mg/dL
GLUCOSE [2]: 196.83 mg/dL
PHOSPHORUS [2]: 11.8 mg/dL
POTASSIUM [2]: 6.47 MEQ/L
SODIUM [2]: 148.33 MEQ/L
TOTAL BILIRUBIN [2]: 0.53 mg/dL
TOTAL PROTEIN [2]: 6.77 G/DL
BASOPHIL [3]: 2.87%
EOSINOPHIL [3]: 0.5%
ERYTHROCYTE COUNT [3]: 7.29 x10E6/uL
HEMATOCRIT [3]: 46.3%
HEMOGLOBIN [3]: 14.43 G/DL
LEUKOCYTE COUNT [3]: 10.83 x10E3/uL
LYMPHOCYTE [3]: 74.43%
MEAN CORPUSCULAR HEMOGLOBIN [3]: 19.83 pg
MEAN CORPUSCULAR HEMOGLOBIN CONCENTRATION [3]: 31.17 G/DL
MEAN CORPUSCULAR VOLUME [3]: 63.57 fL
MONOCYTE [3]: 2.53%
NEUTROPHIL [3]: 19.13%
PLATELET COUNT [3]: 1601 x10E3/uL
ALANINE AMINOTRANSFERASE [3]: 44.33 u/L
ALBUMIN [3]: 3.8 G/DL
ALKALINE PHOSPHATASE [3]: 358.67 u/L
ASPARTATE AMINOTRANSFERASE [3]: 64 u/L
BLOOD UREA NITROGEN [3]: 12.33 mg/dL
CHLORIDE [3]: 102.67 MEQ/L
CHOLESTEROL [3]: 62 mg/dL
CREATINE PHOSPHOKINASE [3]: 129.67 u/L
CREATININE [3]: 0.57 mg/dL
GLUCOSE [3]: 182.33 mg/dL
PHOSPHORUS [3]: 13.07 mg/dL
POTASSIUM [3]: 7.23 MEQ/L
SODIUM [3]: 148.67 MEQ/L
TOTAL BILIRUBIN [3]: 0.37 mg/dL
TOTAL PROTEIN [3]: 6.7 G/DL
BASOPHIL [4]: 2.2%
EOSINOPHIL [4]: 0.17%
ERYTHROCYTE COUNT [4]: 7.21 x10E6/uL
HEMATOCRIT [4]: 45.2%
HEMOGLOBIN [4]: 14.13 G/DL
LEUKOCYTE COUNT [4]: 12.43 x10E3/uL
LYMPHOCYTE [4]: 78.07%
MEAN CORPUSCULAR HEMOGLOBIN [4]: 19.67 pg
MEAN CORPUSCULAR HEMOGLOBIN CONCENTRATION [4]: 31.37 G/DL
MEAN CORPUSCULAR VOLUME [4]: 62.7 fL
MONOCYTE [4]: 3.4%
NEUTROPHIL [4]: 15.23%
PLATELET COUNT [4]: 1492.67 x10E3/uL
ALANINE AMINOTRANSFERASE [4]: 41.67 u/L
ALBUMIN [4]: 3.8 G/DL
ALKALINE PHOSPHATASE [4]: 376 u/L
ASPARTATE AMINOTRANSFERASE [4]: 62.67 u/L
BLOOD UREA NITROGEN [4]: 16 mg/dL
CHLORIDE [4]: 102 MEQ/L
CHOLESTEROL [4]: 67.33 mg/dL
CREATINE PHOSPHOKINASE [4]: 145 u/L
CREATININE [4]: 0.6 mg/dL
GLUCOSE [4]: 181.33 mg/dL
PHOSPHORUS [4]: 12.37 mg/dL
POTASSIUM [4]: 6.73 MEQ/L
SODIUM [4]: 149 MEQ/L
TOTAL BILIRUBIN [4]: 0.33 mg/dL
TOTAL PROTEIN [4]: 6.57 G/DL
BASOPHIL [5]: 1.07%
EOSINOPHIL [5]: 0.27%
ERYTHROCYTE COUNT [5]: 5.61 x10E6/uL
HEMATOCRIT [5]: 34.27%
HEMOGLOBIN [5]: 10.67 G/DL
LEUKOCYTE COUNT [5]: 17.3 x10E3/uL
LYMPHOCYTE [5]: 66.33%
MEAN CORPUSCULAR HEMOGLOBIN [5]: 19 pg
MEAN CORPUSCULAR HEMOGLOBIN CONCENTRATION [5]: 31.13 G/DL
MEAN CORPUSCULAR VOLUME [5]: 61.13 fL
MONOCYTE [5]: 3.5%
NEUTROPHIL [5]: 27.87%
PLATELET COUNT [5]: 1221.33 x10E3/uL
ALANINE AMINOTRANSFERASE [5]: 31 u/L
ALBUMIN [5]: 2.83 G/DL
ALKALINE PHOSPHATASE [5]: 157 u/L
ASPARTATE AMINOTRANSFERASE [5]: 47.67 u/L
BLOOD UREA NITROGEN [5]: 12.67 mg/dL
CHLORIDE [5]: 105 MEQ/L
CHOLESTEROL [5]: 58.67 mg/dL
CREATINE PHOSPHOKINASE [5]: 142.33 u/L
CREATININE [5]: 0.47 mg/dL
GLUCOSE [5]: 168 mg/dL
PHOSPHORUS [5]: 11.97 mg/dL
POTASSIUM [5]: 6.27 MEQ/L
SODIUM [5]: 148.33 MEQ/L
TOTAL BILIRUBIN [5]: 0.2 mg/dL
TOTAL PROTEIN [5]: 5 G/DL
BASOPHIL [6]: 1.2%
EOSINOPHIL [6]: 0.25%
ERYTHROCYTE COUNT [6]: 4.38 x10E6/uL
HEMATOCRIT [6]: 26.95%
HEMOGLOBIN [6]: 8.35 G/DL
LEUKOCYTE COUNT [6]: 3.5 x10E3/uL
LYMPHOCYTE [6]: 64.7%
MEAN CORPUSCULAR HEMOGLOBIN [6]: 19.1 pg
MEAN CORPUSCULAR HEMOGLOBIN CONCENTRATION [6]: 31 G/DL
MEAN CORPUSCULAR VOLUME [6]: 61.65 fL
MONOCYTE [6]: 3.45%
NEUTROPHIL [6]: 24.5%
PLATELET COUNT [6]: 1541 x10E3/uL
ALANINE AMINOTRANSFERASE [6]: 27 u/L
ALBUMIN [6]: 2.6 G/DL
ALKALINE PHOSPHATASE [6]: 256 u/L
ASPARTATE AMINOTRANSFERASE [6]: 105 u/L
BLOOD UREA NITROGEN [6]: 64 mg/dL
CHLORIDE [6]: 103 MEQ/L
CHOLESTEROL [6]: 43 mg/dL
CREATINE PHOSPHOKINASE [6]: 183 u/L
CREATININE [6]: 0.6 mg/dL
GLUCOSE [6]: 107 mg/dL
PHOSPHORUS [6]: 19.1 mg/dL
POTASSIUM [6]: 9.9 MEQ/L
SODIUM [6]: 141 MEQ/L
TOTAL BILIRUBIN [6]: 0.3 mg/dL
TOTAL PROTEIN [6]: 5.3 G/DL
